Patent publication US12233070B2, “Methods for treating benzodiazepine misuse/use disorder” (University of M[…] Center, priority 2020, dated 2025)
“Also recorded” adds a separate entry of the source.

Assays:
Sprague-Dawley rats [1] = experiment: Pulmonary ventilation, whole body plethysmography; assay type: in vivo, rat; details: over the doses tested, i.p.; N=8 rats
Description: We first assessed the effects of TPA023B, in comparison with alprazolam, using whole body plethysmography (WBP; DSI systems). For these studies, adult male Sprague-Dawley rats (n=8) were habituated to the chambers for 30 min. The chamber was then filled with 21% oxygen, sealed, and pressure fluctuation measured for 1 min. Next, the chamber was opened and the rats were injected with alprazolam or TPA023B, i.p., and placed into the sealed chamber for a 15 min pretreatment time. The chamber was again filled with 21% oxygen, and for 1 min, fluctuating pressure amounts were recorded to obtain tidal volume (lung capacity), breaths/minute, and minute volume (lung capacity per unit time).

[2] = parameters: key to Pharmacokinetics: “poor” - low bioavailability and/or short half-life; “good” - potent with long half-life; details: in vivo; cited from earlier work
[3] = biological target: α5 subunit-containing GABAA receptors (Homo sapiens, UniProt P18507+P31644); parameters: key to Subtype α5: act as partial positive modulators for particular subtype combinations; none: zero efficacy (i.e., antagonism) at other subtypes; details: cited from earlier work
α5 subunit-containing GABAA receptors, sequence (P31644 32-462): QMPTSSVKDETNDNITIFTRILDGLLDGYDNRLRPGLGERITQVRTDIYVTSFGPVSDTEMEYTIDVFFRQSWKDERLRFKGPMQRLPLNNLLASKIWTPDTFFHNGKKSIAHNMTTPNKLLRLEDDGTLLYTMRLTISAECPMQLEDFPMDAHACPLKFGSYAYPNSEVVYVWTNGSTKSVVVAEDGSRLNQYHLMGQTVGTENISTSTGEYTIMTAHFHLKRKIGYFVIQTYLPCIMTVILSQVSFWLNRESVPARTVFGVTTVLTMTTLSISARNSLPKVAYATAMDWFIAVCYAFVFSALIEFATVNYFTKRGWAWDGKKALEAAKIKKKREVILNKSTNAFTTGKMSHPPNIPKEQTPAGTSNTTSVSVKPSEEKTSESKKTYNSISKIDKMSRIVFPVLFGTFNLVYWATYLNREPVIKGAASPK
α5 subunit-containing GABAA receptors, sequence (P18507 40-475): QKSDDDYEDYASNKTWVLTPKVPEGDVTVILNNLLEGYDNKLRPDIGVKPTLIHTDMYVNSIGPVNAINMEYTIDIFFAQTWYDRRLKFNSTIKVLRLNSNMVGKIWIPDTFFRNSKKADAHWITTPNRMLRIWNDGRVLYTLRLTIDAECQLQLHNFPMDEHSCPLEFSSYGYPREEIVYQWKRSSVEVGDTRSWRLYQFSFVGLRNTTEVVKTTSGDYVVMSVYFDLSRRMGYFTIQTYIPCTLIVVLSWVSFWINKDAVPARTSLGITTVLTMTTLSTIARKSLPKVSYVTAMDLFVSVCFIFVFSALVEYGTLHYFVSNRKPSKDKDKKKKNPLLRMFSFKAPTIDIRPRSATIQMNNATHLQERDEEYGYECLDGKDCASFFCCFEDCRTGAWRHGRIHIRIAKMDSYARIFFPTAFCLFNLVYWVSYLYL
α5 subunit-containing GABAA receptors, sequence (P28472 26-473 partner): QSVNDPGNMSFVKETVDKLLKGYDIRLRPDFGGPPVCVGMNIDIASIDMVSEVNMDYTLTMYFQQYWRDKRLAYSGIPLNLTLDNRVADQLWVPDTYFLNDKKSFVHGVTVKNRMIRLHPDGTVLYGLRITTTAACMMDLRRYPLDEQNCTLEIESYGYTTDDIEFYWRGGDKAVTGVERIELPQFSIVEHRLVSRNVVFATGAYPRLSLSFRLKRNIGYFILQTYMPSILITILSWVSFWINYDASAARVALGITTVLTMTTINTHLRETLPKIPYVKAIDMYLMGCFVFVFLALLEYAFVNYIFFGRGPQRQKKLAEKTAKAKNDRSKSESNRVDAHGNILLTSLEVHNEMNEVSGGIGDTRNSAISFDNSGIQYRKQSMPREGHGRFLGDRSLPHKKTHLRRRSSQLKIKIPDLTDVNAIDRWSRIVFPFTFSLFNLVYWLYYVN

[4] = biological target: α1 subunit-containing GABAA receptors (Homo sapiens, UniProt P14867+P18507); parameters: key to Subtype α1: act as partial positive modulators for particular subtype combinations; none: zero efficacy (i.e., antagonism) at other subtypes; details: cited from earlier work
α1 subunit-containing GABAA receptors, sequence (P14867 28-456): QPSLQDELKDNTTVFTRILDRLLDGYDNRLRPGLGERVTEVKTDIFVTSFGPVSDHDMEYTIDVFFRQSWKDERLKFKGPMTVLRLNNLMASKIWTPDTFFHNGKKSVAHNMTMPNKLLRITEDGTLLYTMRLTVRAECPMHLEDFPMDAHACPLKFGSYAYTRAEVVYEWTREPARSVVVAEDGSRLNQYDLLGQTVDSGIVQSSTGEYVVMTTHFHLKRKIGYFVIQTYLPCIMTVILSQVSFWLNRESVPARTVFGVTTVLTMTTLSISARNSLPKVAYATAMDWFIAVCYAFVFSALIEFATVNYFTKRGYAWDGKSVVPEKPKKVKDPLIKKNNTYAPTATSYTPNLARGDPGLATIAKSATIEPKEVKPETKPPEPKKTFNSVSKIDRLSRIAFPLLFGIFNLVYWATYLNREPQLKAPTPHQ
α1 subunit-containing GABAA receptors, sequence (P18507 40-475): as the sequence (P18507 40-475) above
α1 subunit-containing GABAA receptors, sequence (P28472 26-473 partner): as the sequence (P28472 26-473 partner) above

Sprague-Dawley rats [5] = experiment: Precipitated withdrawal/acute dependence: responding 60 min after diazepam bolus; assay type: in vivo, rat; details: all doses tested, vs ligand alone; FIGS. 11A and 11B
Description: Acute dependence can occur after single exposures to the benzodiazepine chlordiazepoxide, but not to an α2/3GABAA selective ligand (Fischer et al. 2013, Psychopharmacology 227: 347-54). Here, the extent to which TPA023B can precipitate withdrawal in rats following a single, large bolus dose of diazepam was studied. […] Once rates of responding were stable, doses of diazepam, the non-selective benzodiazepine antagonist flumazenil, and TPA023B were administered prior to the session.

rhesus monkeys [6] = experiment: Observation/sedation, focal animal behavioral scoring; assay type: in vivo, rhesus monkey; details: i.v.
Description: For the data shown here, the behavior of each monkey (n=4 total) was scored using a focal animal approach as described previously (Duke et al. 2018, J Pharmacol Exp Ther 366: 145-57). Briefly, a trained observer blind to the drug treatments observed a specific monkey for 5 min and recorded each instance that a particular behavior occurred during 15-s intervals. Scores for each behavior were calculated as the number of 15-s bins in which the behavior occurred (e.g., a maximum score would be 20). For sedation measures, structured exposure to stimuli were included in the observation sessions (Duke et al., 2018). […] Specifically, the observer presented three stimuli: 1) walked at a normal pace towards the cage, 2) spoke the animal's name, and 3) moved the lock used to secure the door of the cage. […] If the monkey attended more slowly (i.e., >3 s following stimuli), the observer scored “moderate sedation”.
The assessment of sedation was initiated during the 5-min sampling period if the animal presented, at any time during that period, with its eyes closed for longer than 3 s. The result of this assessment was recorded for each remaining 15-sec interval of the 60-sec epoch unless eyes opened. Afterwards, eyes closing again initiated the assessment. If eyes remained closed, then the assessment was repeated at the beginning of the next 60-sec epoch 15-sec interval. Therefore, the maximum score for sedation during a 5-min period was 20 (four possible scores for 4×15-sec intervals per min, 5 min total; i.e., 4 possible scores×5 min=20). The order in which animals were observed and the observer performing the scoring each day was randomized. Four observers participated in the scoring throughout the duration of the study; each observer underwent a minimum of 20 hours of training and met an inter-observer reliability criterion of ≥90% agreement with all other observers.
The five-min sampling periods were repeated at multiple times following i.v. injection of TPA023B or vehicle (minutes post injection): 5, 10, 20, 40, 80, 160, 320. Scores were cumulated across the time periods, resulting in a maximum possible cumulative score of 140. TPA023B was compared with alprazolam, and the results have been published by Duke et al. (2018).

[7] = tested on: benzodiazepine binding sites; details: cited from earlier work
rhesus monkeys [8] = experiment: Food self-administration (PR) after TPA023B pretreatment; assay type: in vivo, rhesus monkey; details: up to 0.3 mg/kg TPA023B i.v. pretreatment; 2 pellets/delivery
Description: To evaluate the extent to which suppression of lever-pressing behavior by TPA023B represents non-specific inhibition, we also tested food self-administration under the PR schedule. For these experiments, test sessions were scheduled similar to those with midazolam dose/vehicle, except that 2 food pellets (1-g BioServ flavored food pellets) were available as reinforcers rather than midazolam dose. All other aspects of the test was the same, including response requirements and TPA023B pretreatment conditions.

[9] = at least one dose significantly different from vehicle, out of 22 behaviors, N = 4 monkeys

SMILES: CC(C)(O)c1cnn2c(-c3ccc(F)c(-c4c(F)cccc4C#N)c3)cnc2n1 [TPA023B]
- any ventilatory parameter (breathing frequency, tidal volume, minute volume) (Sprague-Dawley rats [1]): did not alter; also recorded: no effects
- Pharmacokinetics [2]: good
- Subtype α5 [3]: partial
- Subtype α1 [4]: none
- rates of responding 60 min after 3.0 mg/kg diazepam (precipitated withdrawal) (Sprague-Dawley rats [5]): did not alter rates of responding
- highest tolerated dose relative to lowest dose inducing rest/sleep posture (rhesus monkeys [6]; 1.0 mg/kg): 30 fold
- Significant behavioral effects: Decrease (rhesus monkeys [6]; [9]): Tactile/Oral Exploration
- Significant behavioral effects: Increase (rhesus monkeys [6]; [9]): Rest/Sleep Posture
- tolerability (rhesus monkeys [6]; up to doses of 1.0 mg/kg): well-tolerated
- occupancy of benzodiazepine binding sites ([7]; 1.0 and 3.0 mg/kg): up to 95%
- occupancy of benzodiazepine binding sites in brain ([7]; 3.0 and 10 mg/kg): ≤ 95%
- effect on food-maintained responding (rhesus monkeys [8]): did not alter
